Assay results as given in PMC11973094, “Formononetin and mizoribine inhibit Porcine Reproductive and Respiratory Syndrome Virus replication in vitro” (Frontiers in Nutrition, 2025).

Columns and labels:
PRRSV VR-2332 strain [1] = test: Antiviral EC50 against PRRSV VR-2332 in PAM cells (PRRSV genomic expression); type: cell-based; details: Porcine reproductive and respiratory syndrome virus
Description: (§1) Viral solutions were diluted in a 10-fold gradient. Aliquots of solutions containing varying concentrations of the virus (100 μL each) and DMEM with 2% FBS (100 μL) were added to each well. Add 100 μL of 2% FBS DMEM (without PRRSV) to the control wells. The plates were incubated for 4 days at 37°C in a humidified atmosphere with 5% CO2, after which the virus TCID50 values were calculated using the Reed and Muench formula. To evaluate PRRSV gene expression, we employed the relative quantitative Reverse Transcription Quantitative Polymerase Chain Reaction (qRT-PCR) technique. The resultant data were processed using Design & Analysis Software (Thermo, version 2.6.0) and normalized based on the 2^−ΔΔCt method. For the determination of viral copy numbers, absolute quantitative qRT-PCR was utilized, with sample normalization achieved by quantifying plasmid concentrations prior to the detection process. The specific methods are as described in section 2.4 of our previous paper ([18]). The upstream and downstream primers were: PRRSV 5’-[…]’ and 5’-[…]-3′; Marc-145-GAPDH 5’-[…]-3′ and 5’-[…]-3′; PAM-GAPDH 5’-TCTGGCAAAGTGGACATT-3′ and 5’-[…]-3′.
(§2) Cells were treated in a 96-well plate using DMEM supplemented with 8% FBS. After achieving a monolayer formation, the cells were treated with multiple concentrations of the test compound, which were diluted in DMEM containing 2% FBS and added to six replicate wells. As a control, a blank solution consisting of 0.5% DMSO in DMEM was employed. The cells treated with the compound were incubated at 37°C in a humidified atmosphere with 5% CO2 for 48 or 72 h. Subsequently, the half-maximal cytotoxic concentrations (CC50) was measured following the protocol described in section 2.2 of our previous work ([18]). For the determination of the half-maximal effective concentration (EC50), each concentration was tested in triplicate wells, using 0.4% DMSO as a blank control. EC50 was determined by assessing PRRSV genomic expression levels after three freeze–thaw cycles, and results were plotted using GraphPad Prism 8.

PRRSV GSWW-18 strain = test: Viral titer and gene expression of GSWW-18 strain in PAM cells; type: cell-based, Porcine Reproductive and Respiratory Syndrome Virus; details: 36 h
Description: as §1
(§3) Figure 4 Inhibitory effects of FMN and MZR on GSWW-18 and GSWW-15 Strains. (A,C) Changes in PRRSV viral titers in PAM cells incubated with 20 μM of FMN or MZR for 36 h with the GSWW-18 strain. (B,D) Changes in PRRSV viral genome in PAM cells after 36 h of incubation with 20 μM of FMN or MZR with the GSWW-15 strain. The black dots in the figure represent the raw data from each independent experiment. p-values were calculated using one-way ANOVA with Dunnett’s multiple-comparison test. The p-value less than 0.03 was considered statistically significant. Error bars represent the mean ± SD.

PRRSV GSWW-15 strain = test: Viral titer and gene expression of GSWW-15 strain in PAM cells; type: cell-based, Porcine Reproductive and Respiratory Syndrome Virus; details: 36 h
Description: as §1, §3

PRRSV VR-2332 strain [2] = test: Time-of-addition assay, Marc-145 cells infected with VR-2332 (MOI = 1); type: cell-based, Porcine Reproductive and Respiratory Syndrome Virus
Excerpt: The assay commenced with seeding cells into a 96-well plate, followed by their cultivation in DMEM supplemented with 8% FBS. Upon achieving a monolayer, the cells were infected with the VR-2332 strain of PRRSV at a multiplicity of infection (MOI) of 1. One hour after infection, the viral inoculum was discarded, and the cells were cleansed with ice-cold PBS. DMSO or various concentrations of FMN or MZR were then introduced to the culture at different time intervals, as depicted in Figure 1A. Thirty-six hours post-infection, the expression levels of PRRSV RNA were quantified using previously described methods.
Figure 1 Time-of-addition experiment with FMN or MZR. (A) This schematic diagram illustrates the classical experimental protocol for administering drugs at different time points. The experiment began with Marc-145 cells uniformly infected with VR-2332 (MOI = 1) at 0 h, followed by adding varying concentrations of FMN or MZR at specific times. (B,C) FMN or MZR was introduced at −4, 0, 2, 4, 8, and 16 h to examine their impact on various stages of PRRSV replication. All samples were collected for analysis 36 h post-infection. The colors of the bars in the figure correspond to the time points as detailed in (A). Each symbol represents an independent biological replicate. The p-values are indicated, with ‘ns’ denoting p > 0.1234. These values were calculated using one-way ANOVA with Dunnett’s multiple-comparison test, and a p-value less than 0.0332 was considered statistically significant.

PRRSV VR-2332 strain [3] = test: Antiviral EC50 against PRRSV VR-2332 in Marc-145 cells (PRRSV genomic expression); type: cell-based; details: Porcine reproductive and respiratory syndrome virus, MARC145, VR-2332 strain
Description: as §1, §2

PAM cells = test: Cytotoxicity (CC50) by CCK-8 assay in PAM cells; type: cell-based, Porcine
Description: as §2, with “For the determination of the half-maximal effective concentration (EC50), each concentration was tested in triplicate wells, using 0.4% DMSO as a blank control.” left out
(§4) Figure 2 Evaluating the cytotoxicity of FMN and MZR on Marc-145 and PAM Cells. (A,B) CC50 values for FMN in Marc-145 cells at 48 and 72 h, determined via the CCK-8 assay. (C,D) CC50 of FMN in PAM cells assessed at 48 and 72 h. (E,F) CC50 values for MZR in Marc-145 cells at 48 and 72 h. (G,H) CC50 for MZR in PAM cells, also measured at 48 and 72 h. (I) The antiviral activity of FMN against the PRRSV VR-2332 strain, evaluated via IFA. (J) Antiviral effectiveness of MZR against the VR-2332 strain, assessed using IFA. Control samples were treated with a matching volume of 0.4% DMSO in DMEM. Black dots within the figure symbolize individual data points from each independent experiment. IFA images are from three experimental replicates.

[4] = Cytotoxicity (CC50) by CCK-8 assay in PAM cells; type: cell-based, Porcine; details: pig
Description: as §2, with “For the determination of the half-maximal effective concentration (EC50), each concentration was tested in triplicate wells, using 0.4% DMSO as a blank control.” left out
as §4

Marc-145 cells = test: Cytotoxicity (CC50) by CCK-8 assay in Marc-145 cells; type: cell-based; details: for Non-cytotoxic concentrations: Marc-145 and PAM cells, treatment durations shorter than 48 h
Description: as §2, with “The cells treated with the compound were incubated at 37°C in a humidified atmosphere with 5% CO2 for 48 or 72 h.” left out, “For the determination of the half-maximal effective concentration (EC50), each concentration was tested in triplicate wells, using 0.4% DMSO as a blank control.” left out
as §4

PRRSV VR-2332 strain [5] = test: Viral titer (TCID50) and viral genome (qRT-PCR) of VR-2332 after 36-h incubation with the compounds; type: cell-based, Porcine Reproductive and Respiratory Syndrome Virus; details: for Correlation of concentration with relative expression of the PRRSV genome / Correlation of concentration with viral titer: 36-h incubation, linear fit slope m negative; for Concentrations effectively suppressing viral replication: dose-dependent inhibition
Description: as §1
Figure 3 Assessing the antiviral potency of FMN and MZR on PRRSV. This figure delineates the evaluation of FMN and MZR at varying concentrations for their antiviral effects on the VR-2332 strain. (A,C) Display the EC50 of FMN in PAM and Marc-145 cells, respectively. (B,D) Illustrate the EC50 of MZR in PAM and Marc-145 cells. (E,F) Show alterations in the viral titers of the VR-2332 strain post 36-h incubation with distinct concentrations of FMN or MZR. (G,H) Represent the viral genome changes under similar conditions. Each point in the figure corresponds to raw data from individual experiments. Linear fit slopes are marked in red. Error bars indicate the mean ± SD. TEXT PRINTED IN THE PICTURE: (A) FMN: PAM: EC50: 8.716; PAM: EC90: 223.542 | (B) MZR: PAM: EC50: 8.274; PAM: EC90: 19.945 | (C) FMN: Marc-145: EC50: 16.863; Marc-145: EC90: 104.819 | (D) MZR: Marc-145: EC50: 22.335; Marc-145: EC90: 63.856

PRRSV VR-2332 strain [6] = test: Indirect immunofluorescence assay (IFA) of VR-2332 in PAM cells; type: cell-based, Porcine Reproductive and Respiratory Syndrome Virus; details: within the safety range
Description: The following antibodies were used for IFA: Mouse Anti-SR30 (Rtilab, SR30-A) and Goat Anti-Mouse FITC (Bioss, bs-0368G-FITC). After virus inoculation, cells were fixed with 80% cold acetone according to previous experimental conditions for IFA ([18]). A Leica DMI6000 microscope was used for observation.
as §4

[7] = added 16 h after infection, P > 0.1234
[8] = added in the initial stages post-infection, collected 36 h post-infection
[9] = lower concentrations added 8 h post-infection, P > 0.1234

Row | SMILES | EC50 (PRRSV VR-2332 strain [1]) [µM] | EC50 (PRRSV VR-2332 strain [1]; Figure 3, unit inferred) [µM] | EC90 (PRRSV VR-2332 strain [1]; Figure 3, unit inferred) [µM] | Gene expression levels (PRRSV GSWW-18 strain) | Viral titers (PRRSV GSWW-18 strain) | Gene expression levels (PRRSV GSWW-15 strain) | Viral titers (PRRSV GSWW-15 strain) | Effect on PRRSV replication (PRRSV RNA) (PRRSV VR-2332 strain [2]; [7]) | Effect on PRRSV replication (PRRSV RNA) (PRRSV VR-2332 strain [2]; [8]) | Effect on PRRSV replication (PRRSV RNA) (PRRSV VR-2332 strain [2]; [9]) | EC50 (PRRSV VR-2332 strain [3]) [µM] | EC50 (PRRSV VR-2332 strain [3]; Figure 3, unit inferred) [µM] | EC90 (PRRSV VR-2332 strain [3]; Figure 3, unit inferred) [µM] | Non-cytotoxic concentrations (Marc-145 cells) | Correlation of concentration with relative expression of the PRRSV genome (PRRSV VR-2332 strain [5]) | Correlation of concentration with viral titer (PRRSV VR-2332 strain [5]) | Concentrations effectively suppressing viral replication (PRRSV VR-2332 strain [5]) | Antiviral activity by IFA (PRRSV VR-2332 strain [6]) | other results
1 | COc1ccc(-c2coc3cc(O)ccc3c2=O)cc1 [FMN, 7-hydroxy-3-(4-methoxyphenyl)-4H-chromen-4-one] | ~8.72 | 8.72 | 224 | dose-dependent inverse relationship | dose-dependent reduction | dose-dependent inverse relationship | dose-dependent reduction | entirely ineffective | pronounced antiviral activity | did not significantly impede PRRSV replication | ~16.9 | 16.9 | 105 | below 100 μM | negatively correlated | negatively correlated | above 20 μM | antiviral efficacy | Cytotoxicity (PAM cells; 48 h): non-toxic; CC50 at 72 h ([4]; 72 h, printed in the picture of Figure 2D, no unit): 52 µM; CC50 at 72 h ([4]; 72 h exposure): 52 µM
2 | NC(=O)c1ncn([C@@H]2O[C@H](CO)[C@@H](O)[C@H]2O)c1O [MZR, 1-[(2R,3R,4S,5R)-3,4-dihydroxy-5-(hydroxymethyl)oxolan-2-yl]-5-hydroxy-1H-imidazole-4-carboxamide, reference compound] | ~8.27 | 8.27 | 19.9 | dose-dependent inverse relationship | dose-dependent reduction | dose-dependent inverse relationship | dose-dependent reduction | entirely ineffective | pronounced antiviral activity | did not significantly impede PRRSV replication | ~22.3 | 22.3 | 63.9 | below 100 μM | negatively correlated | negatively correlated | above 20 μM | antiviral efficacy | Cytotoxicity (PAM cells; treatment up to 72 h): negligible cytotoxicity; Cytotoxicity (Marc-145 cells; Marc-145 cells, various concentrations, 48 and 72 h): minimal cytotoxicity
